Laboratory results reported in PubChem BioAssay AID1845209 (Molecular Pharmacology Branch, DTP, NCI, 2023).

Tested on: NCI-H211 tumor spheroids, viability percent test/control
Assay: Anticancer human tumor NCI-H211 cell line growth inhibition;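 note: spheroids exposed to agents for seven days before readout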
Details: spheroids with HUVEC and MSC; for IC50: curve of first compound; for viability, T/C: stronger effect = lower value
Summary of the method: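 Single agents and combinations were tested on spheroids built from tumor cells plus HUVEC and hMSC, at half-log dilutions starting at or near clinical Cmax, else 10 microM; final DMSO 0.25% (v/v).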

CNCc1ccc(-c2cc(-c3nc(-c4ccc(S(=O)(=O)C(C)C)cc4)cnc3N)on2)cc1 + Cn1nnc2c(C(N)=O)ncn2c1=O
IC50 (second compound 1 µM): 11.5 nM | IC50 (second compound 3.16 µM): 19.7 nM | IC50 (second compound 10 µM): 16.8 nM | IC50 (second compound 31.6 µM): < 9.49 nM | IC50 (second compound 100 µM): < 9.49 nM | viability, T/C (second compound 1 µM, first compound 0.00949 µM): 53% | viability, T/C (second compound 1 µM, first compound 0.03 µM): 35.3% | viability, T/C (second compound 1 µM, first compound 0.0949 µM): 6.53% | viability, T/C (second compound 1 µM, first compound 0.3 µM): 1.07% | viability, T/C (second compound 1 µM, first compound 0.949 µM): 0.07% | viability, T/C (second compound 1 µM, first compound 3 µM): 0.11% | viability, T/C (second compound 3.16 µM, first compound 0.00949 µM): 71% | viability, T/C (second compound 3.16 µM, first compound 0.03 µM): 37.9% | viability, T/C (second compound 3.16 µM, first compound 0.0949 µM): 7.5% | viability, T/C (second compound 3.16 µM, first compound 0.3 µM): 0.64% | viability, T/C (second compound 3.16 µM, first compound 0.949 µM): 0.13% | viability, T/C (second compound 3.16 µM, first compound 3 µM): 0.1% | viability, T/C (second compound 10 µM, first compound 0.00949 µM): 66.9% | viability, T/C (second compound 10 µM, first compound 0.03 µM): 32.9% | viability, T/C (second compound 10 µM, first compound 0.0949 µM): 6.3% | viability, T/C (second compound 10 µM, first compound 0.3 µM): 0.72% | viability, T/C (second compound 10 µM, first compound 0.949 µM): 0.13% | viability, T/C (second compound 10 µM, first compound 3 µM): 0.13% | viability, T/C (second compound 31.6 µM, first compound 0.00949 µM): 34% | viability, T/C (second compound 31.6 µM, first compound 0.03 µM): 9.23% | viability, T/C (second compound 31.6 µM, first compound 0.0949 µM): 2.14% | viability, T/C (second compound 31.6 µM, first compound 0.3 µM): 1.16% | viability, T/C (second compound 31.6 µM, first compound 0.949 µM): 0.14% | viability, T/C (second compound 31.6 µM, first compound 3 µM): 0.14% | viability, T/C (second compound 100 µM, first compound 0.00949 µM): 11% | viability, T/C (second compound 100 µM, first compound 0.03 µM): 2.34% | viability, T/C (second compound 100 µM, first compound 0.0949 µM): 1.63% | viability, T/C (second compound 100 µM, first compound 0.3 µM): 1.21% | viability, T/C (second compound 100 µM, first compound 0.949 µM): 0.17% | viability, T/C (second compound 100 µM, first compound 3 µM): 0.23%

Cc1cc(C)c(CNC(=O)c2cc(-c3ccc(CN4CCOCC4)cc3)cc3c2cnn3C2CCCC2)c(=O)[nH]1 + Cn1nnc2c(C(N)=O)ncn2c1=O
IC50 (second compound 1 µM): 5600 nM | IC50 (second compound 3.16 µM): 8080 nM | IC50 (second compound 10 µM): 2060 nM | IC50 (second compound 31.6 µM): 81 nM | IC50 (second compound 100 µM): < 31.6 nM | viability, T/C (second compound 1 µM, first compound 0.0316 µM): 92.3% | viability, T/C (second compound 1 µM, first compound 0.1 µM): 81.4% | viability, T/C (second compound 1 µM, first compound 0.316 µM): 70% | viability, T/C (second compound 1 µM, first compound 1 µM): 70.6% | viability, T/C (second compound 1 µM, first compound 3.16 µM): 72.7% | viability, T/C (second compound 1 µM, first compound 10 µM): 32.3% | viability, T/C (second compound 3.16 µM, first compound 0.0316 µM): 95.3% | viability, T/C (second compound 3.16 µM, first compound 0.1 µM): 94.7% | viability, T/C (second compound 3.16 µM, first compound 0.316 µM): 84% | viability, T/C (second compound 3.16 µM, first compound 1 µM): 86.7% | viability, T/C (second compound 3.16 µM, first compound 3.16 µM): 71.3% | viability, T/C (second compound 3.16 µM, first compound 10 µM): 45% | viability, T/C (second compound 10 µM, first compound 0.0316 µM): 95.4% | viability, T/C (second compound 10 µM, first compound 0.1 µM): 93.2% | viability, T/C (second compound 10 µM, first compound 0.316 µM): 66.7% | viability, T/C (second compound 10 µM, first compound 1 µM): 68.7% | viability, T/C (second compound 10 µM, first compound 3.16 µM): 37.9% | viability, T/C (second compound 10 µM, first compound 10 µM): 36.8% | viability, T/C (second compound 31.6 µM, first compound 0.0316 µM): 58.4% | viability, T/C (second compound 31.6 µM, first compound 0.1 µM): 47.4% | viability, T/C (second compound 31.6 µM, first compound 0.316 µM): 35.1% | viability, T/C (second compound 31.6 µM, first compound 1 µM): 33.7% | viability, T/C (second compound 31.6 µM, first compound 3.16 µM): 10.6% | viability, T/C (second compound 31.6 µM, first compound 10 µM): 19.9% | viability, T/C (second compound 100 µM, first compound 0.0316 µM): 33.6% | viability, T/C (second compound 100 µM, first compound 0.1 µM): 21.7% | viability, T/C (second compound 100 µM, first compound 0.316 µM): 18.9% | viability, T/C (second compound 100 µM, first compound 1 µM): 16.3% | viability, T/C (second compound 100 µM, first compound 3.16 µM): 10.4% | viability, T/C (second compound 100 µM, first compound 10 µM): 7.54%
